Assay results taken from PubChem BioAssay AID248 (DTP/NCI, 2004).
Values joined by “and” are separate entries in the source; they are usually repeats but may differ in a detail not shown here. Equal values may be shown once. Toxic doses and inconclusive results are not listed. No stated cut-off is given here; in the data, active means T/C of 150% or more; inactive means T/C below 125%.

Tested on: L1210 leukemia ip in BDF1 mice, survival T/C
Assay: NCI In Vivo Anticancer Drug Screen. Data for tumor model L1210 Leukemia (intraperitoneal) in B6D2F1 (BDF1) mice
Settings: endpoint: mean survival time, higher = longer survival
Outline: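 Read-out is survival time, reported as the treated-group measurement over the vehicle-control measurement.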

[1] = dose: 50.0 mg/kg/injection, schedule: Q01DX009 (ip), vehicle: saline with Tween-80
[2] = dose: 100.0 mg/kg/injection, schedule: Q01DX009 (ip), vehicle: saline with Tween-80
[3] = dose: 200.0 mg/kg/injection, schedule: Q01DX009 (ip), vehicle: saline with Tween-80
[4] = dose: 100.0 mg/kg/injection, schedule: Q04DX003 (ip), vehicle: saline with Tween-80
[5] = dose: 400.0 mg/kg/injection, schedule: Q01DX009 (ip), vehicle: saline with Tween-80
[6] = dose: 100.0 mg/kg/injection, schedule: Q01DX009 (ip), vehicle: Klucel (hydroxypropylcellulose) (HPC)
[7] = dose: 200.0 mg/kg/injection, schedule: Q01DX009 (ip), vehicle: Klucel (hydroxypropylcellulose) (HPC)
[8] = dose: 100.0 mg/kg/injection, schedule: Q04DX002 (ip), vehicle: Klucel (hydroxypropylcellulose) (HPC)
[9] = dose: 200.0 mg/kg/injection, schedule: Q04DX002 (ip), vehicle: Klucel (hydroxypropylcellulose) (HPC)
[10] = dose: 400.0 mg/kg/injection, schedule: Q04DX002 (ip), vehicle: Klucel (hydroxypropylcellulose) (HPC)
[11] = dose: 100.0 mg/kg/injection, schedule: Q01DX001 (ip), vehicle: saline
[12] = dose: 200.0 mg/kg/injection, schedule: Q01DX001 (ip), vehicle: saline
[13] = dose: 400.0 mg/kg/injection, schedule: Q01DX001 (ip), vehicle: saline

Measured: T/C

CC(C)[N+](=O)[O-]
inactive: dose: 62.5 mg/kg/injection, schedule: Q01DX001 (ip), vehicle: Klucel (hydroxypropylcellulose) (HPC) 104 % of control | dose: 125.0 mg/kg/injection, schedule: Q01DX001 (ip), vehicle: Klucel (hydroxypropylcellulose) (HPC) 114 % of control | dose: 250.0 mg/kg/injection, schedule: Q01DX001 (ip), vehicle: Klucel (hydroxypropylcellulose) (HPC) 101 % of control

C[S+](C)CCCNC(=O)c1csc(CCNC(=O)c2ccccc2)n1
inactive: dose: 12.5 mg/kg/injection, schedule: Q01DX009 (ip), vehicle: saline with Tween-80 100 % of control | dose: 12.5 mg/kg/injection, schedule: Q04DX003 (ip), vehicle: saline with Tween-80 103 % of control | dose: 25.0 mg/kg/injection, schedule: Q01DX009 (ip), vehicle: saline with Tween-80 97 % of control | dose: 25.0 mg/kg/injection, schedule: Q04DX003 (ip), vehicle: saline with Tween-80 101 % of control | [1] 101 % of control | dose: 50.0 mg/kg/injection, schedule: Q04DX003 (ip), vehicle: saline with Tween-80 97 % of control

COC(=O)CCC(OC(C)=O)C(=O)c1ccccc1 (centres undefined)
inactive: [1] 91 % of control | [2] 94 % of control | [3] 88 % of control

ClCC1COC(CCl)O1 (centres undefined)
inactive: dose: 55.0 mg/kg/injection, schedule: Q01DX Z (ip), vehicle: saline 101 % of control | dose: 83.0 mg/kg/injection, schedule: Q01DX Z (ip), vehicle: saline 95 % of control | dose: 125.0 mg/kg/injection, schedule: Q01DX Z (ip), vehicle: saline 97 % of control

O=NN1C(=O)N(CCCl)C(=O)C1(c1ccccc1)c1ccccc1
inactive: dose: 100.0 mg/kg/injection, schedule: Q04DX003 (ip), vehicle: saline 96 % of control | dose: 200.0 mg/kg/injection, schedule: Q04DX003 (ip), vehicle: saline 97 % of control | dose: 400.0 mg/kg/injection, schedule: Q04DX003 (ip), vehicle: saline 102 % of control

N#CC(O)C(Br)(Br)Br (centres undefined)
inactive: dose: 5.0 mg/kg/injection, schedule: Q01DX001 (ip), vehicle: saline 97 % of control | dose: 10.0 mg/kg/injection, schedule: Q01DX001 (ip), vehicle: saline 92 % of control | dose: 20.0 mg/kg/injection, schedule: Q01DX001 (ip), vehicle: saline 101 % of control

Cc1cc(C)c(NC(=S)NC(=O)/C=C/c2ccccc2)c(C)c1
inactive: dose: 100.0 mg/kg/injection, schedule: Q01DX001 (ip), vehicle: saline with Tween-80 100 % of control | [2] 97 % of control and 89 % of control | dose: 100.0 mg/kg/injection, schedule: Q04DX002 (ip), vehicle: saline with Tween-80 101 % of control | [4] 92 % of control | dose: 200.0 mg/kg/injection, schedule: Q01DX001 (ip), vehicle: saline with Tween-80 92 % of control | [3] 101 % of control and 107 % of control | dose: 200.0 mg/kg/injection, schedule: Q04DX002 (ip), vehicle: saline with Tween-80 104 % of control | dose: 200.0 mg/kg/injection, schedule: Q04DX003 (ip), vehicle: saline with Tween-80 92 % of control | dose: 400.0 mg/kg/injection, schedule: Q01DX001 (ip), vehicle: saline with Tween-80 97 % of control | [5] 92 % of control and 96 % of control | dose: 400.0 mg/kg/injection, schedule: Q04DX002 (ip), vehicle: saline with Tween-80 87 % of control | dose: 400.0 mg/kg/injection, schedule: Q04DX003 (ip), vehicle: saline with Tween-80 91 % of control

c1ccc(CNCCOB(OCCNCc2ccccc2)OCCNCc2ccccc2)cc1
inactive: [6] 94 % of control | dose: 100.0 mg/kg/injection, schedule: Q04DX003 (ip), vehicle: Klucel (hydroxypropylcellulose) (HPC) 98 % of control | [7] 94 % of control | dose: 200.0 mg/kg/injection, schedule: Q04DX003 (ip), vehicle: Klucel (hydroxypropylcellulose) (HPC) 111 % of control | dose: 400.0 mg/kg/injection, schedule: Q01DX009 (ip), vehicle: Klucel (hydroxypropylcellulose) (HPC) 97 % of control | dose: 400.0 mg/kg/injection, schedule: Q04DX003 (ip), vehicle: Klucel (hydroxypropylcellulose) (HPC) 95 % of control

CCOC(=O)CNc1cc(C)ccc1C
inactive: [8] 95 % of control | [9] 98 % of control | [10] 95 % of control

O=c1c2ccccc2nnn1-c1ccc([N+](=O)[O-])cc1
inactive: [11] 97 % of control | [12] 94 % of control | [13] 95 % of control

CS(=O)(=O)NC1=NCCN1[N+](=O)[O-]
inactive: dose: 10.0 mg/kg/injection, schedule: Q01DX009 (ip), vehicle: Klucel (hydroxypropylcellulose) (HPC) 88 % of control | dose: 20.0 mg/kg/injection, schedule: Q01DX009 (ip), vehicle: Klucel (hydroxypropylcellulose) (HPC) 91 % of control | dose: 20.0 mg/kg/injection, schedule: Q04DX003 (ip), vehicle: Klucel (hydroxypropylcellulose) (HPC) 98 % of control | dose: 40.0 mg/kg/injection, schedule: Q01DX009 (ip), vehicle: Klucel (hydroxypropylcellulose) (HPC) 98 % of control | dose: 40.0 mg/kg/injection, schedule: Q04DX003 (ip), vehicle: Klucel (hydroxypropylcellulose) (HPC) 101 % of control

c1cc[c]2c(c1)Oc1cccc[c]1[Sn]21[c]2ccccc2Oc2cccc[c]21
inactive: dose: 100.0 mg/kg/injection, schedule: Q01DX001 (ip), vehicle: other 91 % of control | dose: 200.0 mg/kg/injection, schedule: Q01DX001 (ip), vehicle: other 96 % of control | dose: 400.0 mg/kg/injection, schedule: Q01DX001 (ip), vehicle: other 89 % of control

Nc1nc2c(nc(Br)n2C2CC(O)C(CO)O2)c(=O)[nH]1 (centres undefined)
inactive: dose: 50.0 mg/kg/injection, schedule: Q01DX001 (ip), vehicle: saline 102 % of control | [11] 102 % of control | [12] 98 % of control | [13] 98 % of control

CCCCC(=O)N(CCC)CCC
inactive: dose: 100.0 mg/kg/injection, schedule: Q04DX002 (ip), vehicle: saline 96 % of control | dose: 200.0 mg/kg/injection, schedule: Q04DX002 (ip), vehicle: saline 104 % of control | dose: 400.0 mg/kg/injection, schedule: Q04DX002 (ip), vehicle: saline 104 % of control

CCCCCCCCCC(F)CCCCCCCC(=O)O (centres undefined) (tested in a mixture with another compound)
inactive: [11] 91 % of control | [12] 91 % of control | [13] 95 % of control

Cc1ccc(S(=O)(=O)N(CC2OCC3OC(C)(C)OC23)N=O)cc1 (centres undefined)
inactive: dose: 75.0 mg/kg/injection, schedule: Q01DX001 (ip), vehicle: saline 100 % of control | dose: 150.0 mg/kg/injection, schedule: Q01DX001 (ip), vehicle: saline 98 % of control | dose: 300.0 mg/kg/injection, schedule: Q01DX001 (ip), vehicle: saline 98 % of control

COCC(=O)C(C(C)=O)C(c1ccncc1)C(C(C)=O)C(=O)COC (centres undefined)
inactive: [2] 98 % of control | [3] 97 % of control | [5] 93 % of control

CSc1ccc(NC(=O)Sc2ccccc2C)cc1
inactive: dose: 75.0 mg/kg/injection, schedule: Q01DX001 (ip), vehicle: Klucel (hydroxypropylcellulose) (HPC) 95 % of control | dose: 75.0 mg/kg/injection, schedule: Q01DX009 (ip), vehicle: Klucel (hydroxypropylcellulose) (HPC) 93 % of control and 95 % of control | dose: 75.0 mg/kg/injection, schedule: Q04DX003 (ip), vehicle: Klucel (hydroxypropylcellulose) (HPC) 103 % of control | [6] 95 % of control and 103 % of control | [8] 98 % of control and 105 % of control | dose: 150.0 mg/kg/injection, schedule: Q01DX001 (ip), vehicle: Klucel (hydroxypropylcellulose) (HPC) 94 % of control | dose: 150.0 mg/kg/injection, schedule: Q01DX009 (ip), vehicle: Klucel (hydroxypropylcellulose) (HPC) 101 % of control | dose: 150.0 mg/kg/injection, schedule: Q04DX003 (ip), vehicle: Klucel (hydroxypropylcellulose) (HPC) 87 % of control | [7] 109 % of control | [9] 97 % of control | dose: 300.0 mg/kg/injection, schedule: Q01DX001 (ip), vehicle: Klucel (hydroxypropylcellulose) (HPC) 96 % of control | dose: 300.0 mg/kg/injection, schedule: Q01DX009 (ip), vehicle: Klucel (hydroxypropylcellulose) (HPC) 86 % of control and 88 % of control | dose: 300.0 mg/kg/injection, schedule: Q04DX003 (ip), vehicle: Klucel (hydroxypropylcellulose) (HPC) 91 % of control | [10] 93 % of control and 94 % of control

CC(C)C(CN)(CCCN1CCCCC1)c1cccc2ccccc12 (centres undefined)
inactive: [4] 101 % of control
